The values that follow come from patent publication US11098044B2, “Imidazopyridinyl compounds and use thereof for treatment of neurodegenerative disorders” (1ST Biotherapeutics, Inc., priority 2019, dated 2021).

The structures appear in SMILES notation. pIC50: −log10 of the molar value.

As usually defined, the pIC50 is −log10 of the IC50, conventionally taken in molar units.

Assay type in all cases: biochemical
The target of assay [1] is LRRK2 G2019S (Homo sapiens (Human), UniProt Q5S007, G2019S). Kind of assay: LRRK2 G2019S Kinase Assay (Adapta). The note with it: 100 μM ATP, LRRKtide substrate; read-out: LRRK2_G2019S IC50. On the procedure: (§1) The LRRK2 and LRRK2 G2019S kinase assays were performed using the Adapta™ technology in ThermoFisher Scientific. This experiment was carried out according to the supplier's protocol. Briefly, assay conditions were as follows. The mixture of substrate (LRRKtide) and each kinase was prepared in 50 mM Tris pH 8.5, 0.01% BRIJ-35, 10 mM MgCl2, 1 mM EGTA, 0.02% NaN3. Assays were performed in the presence of 70 μM ATP and 100 μM ATP (KmATP) in LRRK2 and LRRK2 G2019S, respectively. The reaction was progressed at room temperature for 1 hour. Upon completion of kinase reaction, 5 μL of Detection Mix was added and after 60 min incubation time, the emission ratio of 665/615 nm was calculated.

Assay [2] addresses LRRK2 (WT) (Homo sapiens (Human), UniProt Q5S007). Nature of the assay: LRRK2 Kinase Assay (Adapta). The note with it: 70 μM ATP, LRRKtide substrate. How it is done: as §1
In assay [3] the target is c-Abl (His-tagged recombinant human ABL1) (Homo sapiens (Human), UniProt P00519). Kind of assay: c-abl Kinase Assay (ADP-Glo). The note with it: ATP (25 μM), Abltide substrate. How it is done: ADP-Glo assay kit was purchased from Promega. Magnesium chloride (MgCl2), bovine serum albumin (BSA), ethylene glycol-bis(p-aminoethyl ether)-N,N,N′,N′-tetraacetic acid (EGTA), triton X-100, 1,4-dithiothreitol (DTT) and dimethyl sulfoxide (DMSO) were purchased from Sigma-Aldrich. HEPES buffer was purchased from Gibco. ABL1 kinase and Abltide were purchased from Signalchem.
c-Abl kinase activity was measured by Promega's ADP-Glo™ Assay. In this assay, His-tagged recombinant human ABL1 (0.25 ng/μl) is incubated with 5 μL of compounds (0.5% DMSO), 5 μL of Abltide (0.01 μg/μl) and 5 μL of ATP (25 μM) in buffer (50 mM HEPES, 7.5; 10 mM MgCl2; 1 mM EGTA; 0.05% BSA; 0.01% Triton X-100; 2 mM DTT). The assay was started by incubating the reaction mixture in a 96-well plate at 30° C. for 30-min. After the incubation, 25 μL ADP-Glo reagent was added and the reaction was incubated at room temperature for 40-min to stop the reaction and degrade residual ATP. The ADP product was then converted to ATP by adding 50 μL per well of detection reagent. Luminescence was detected after 30-min room temperature incubation with the Molecular device I3X plate reader. The IC50 values were calculated from a series of percent inhibition values determined at a range of inhibitor concentration using software routines as implemented in the GraphPad Prism 7 software and Sigma Plot 13.0.
A general note: ADP-Glo turns the ADP formed in a reaction into a luminescent signal.

Chain of LRRK2 (WT) (Q5S007 whole entry): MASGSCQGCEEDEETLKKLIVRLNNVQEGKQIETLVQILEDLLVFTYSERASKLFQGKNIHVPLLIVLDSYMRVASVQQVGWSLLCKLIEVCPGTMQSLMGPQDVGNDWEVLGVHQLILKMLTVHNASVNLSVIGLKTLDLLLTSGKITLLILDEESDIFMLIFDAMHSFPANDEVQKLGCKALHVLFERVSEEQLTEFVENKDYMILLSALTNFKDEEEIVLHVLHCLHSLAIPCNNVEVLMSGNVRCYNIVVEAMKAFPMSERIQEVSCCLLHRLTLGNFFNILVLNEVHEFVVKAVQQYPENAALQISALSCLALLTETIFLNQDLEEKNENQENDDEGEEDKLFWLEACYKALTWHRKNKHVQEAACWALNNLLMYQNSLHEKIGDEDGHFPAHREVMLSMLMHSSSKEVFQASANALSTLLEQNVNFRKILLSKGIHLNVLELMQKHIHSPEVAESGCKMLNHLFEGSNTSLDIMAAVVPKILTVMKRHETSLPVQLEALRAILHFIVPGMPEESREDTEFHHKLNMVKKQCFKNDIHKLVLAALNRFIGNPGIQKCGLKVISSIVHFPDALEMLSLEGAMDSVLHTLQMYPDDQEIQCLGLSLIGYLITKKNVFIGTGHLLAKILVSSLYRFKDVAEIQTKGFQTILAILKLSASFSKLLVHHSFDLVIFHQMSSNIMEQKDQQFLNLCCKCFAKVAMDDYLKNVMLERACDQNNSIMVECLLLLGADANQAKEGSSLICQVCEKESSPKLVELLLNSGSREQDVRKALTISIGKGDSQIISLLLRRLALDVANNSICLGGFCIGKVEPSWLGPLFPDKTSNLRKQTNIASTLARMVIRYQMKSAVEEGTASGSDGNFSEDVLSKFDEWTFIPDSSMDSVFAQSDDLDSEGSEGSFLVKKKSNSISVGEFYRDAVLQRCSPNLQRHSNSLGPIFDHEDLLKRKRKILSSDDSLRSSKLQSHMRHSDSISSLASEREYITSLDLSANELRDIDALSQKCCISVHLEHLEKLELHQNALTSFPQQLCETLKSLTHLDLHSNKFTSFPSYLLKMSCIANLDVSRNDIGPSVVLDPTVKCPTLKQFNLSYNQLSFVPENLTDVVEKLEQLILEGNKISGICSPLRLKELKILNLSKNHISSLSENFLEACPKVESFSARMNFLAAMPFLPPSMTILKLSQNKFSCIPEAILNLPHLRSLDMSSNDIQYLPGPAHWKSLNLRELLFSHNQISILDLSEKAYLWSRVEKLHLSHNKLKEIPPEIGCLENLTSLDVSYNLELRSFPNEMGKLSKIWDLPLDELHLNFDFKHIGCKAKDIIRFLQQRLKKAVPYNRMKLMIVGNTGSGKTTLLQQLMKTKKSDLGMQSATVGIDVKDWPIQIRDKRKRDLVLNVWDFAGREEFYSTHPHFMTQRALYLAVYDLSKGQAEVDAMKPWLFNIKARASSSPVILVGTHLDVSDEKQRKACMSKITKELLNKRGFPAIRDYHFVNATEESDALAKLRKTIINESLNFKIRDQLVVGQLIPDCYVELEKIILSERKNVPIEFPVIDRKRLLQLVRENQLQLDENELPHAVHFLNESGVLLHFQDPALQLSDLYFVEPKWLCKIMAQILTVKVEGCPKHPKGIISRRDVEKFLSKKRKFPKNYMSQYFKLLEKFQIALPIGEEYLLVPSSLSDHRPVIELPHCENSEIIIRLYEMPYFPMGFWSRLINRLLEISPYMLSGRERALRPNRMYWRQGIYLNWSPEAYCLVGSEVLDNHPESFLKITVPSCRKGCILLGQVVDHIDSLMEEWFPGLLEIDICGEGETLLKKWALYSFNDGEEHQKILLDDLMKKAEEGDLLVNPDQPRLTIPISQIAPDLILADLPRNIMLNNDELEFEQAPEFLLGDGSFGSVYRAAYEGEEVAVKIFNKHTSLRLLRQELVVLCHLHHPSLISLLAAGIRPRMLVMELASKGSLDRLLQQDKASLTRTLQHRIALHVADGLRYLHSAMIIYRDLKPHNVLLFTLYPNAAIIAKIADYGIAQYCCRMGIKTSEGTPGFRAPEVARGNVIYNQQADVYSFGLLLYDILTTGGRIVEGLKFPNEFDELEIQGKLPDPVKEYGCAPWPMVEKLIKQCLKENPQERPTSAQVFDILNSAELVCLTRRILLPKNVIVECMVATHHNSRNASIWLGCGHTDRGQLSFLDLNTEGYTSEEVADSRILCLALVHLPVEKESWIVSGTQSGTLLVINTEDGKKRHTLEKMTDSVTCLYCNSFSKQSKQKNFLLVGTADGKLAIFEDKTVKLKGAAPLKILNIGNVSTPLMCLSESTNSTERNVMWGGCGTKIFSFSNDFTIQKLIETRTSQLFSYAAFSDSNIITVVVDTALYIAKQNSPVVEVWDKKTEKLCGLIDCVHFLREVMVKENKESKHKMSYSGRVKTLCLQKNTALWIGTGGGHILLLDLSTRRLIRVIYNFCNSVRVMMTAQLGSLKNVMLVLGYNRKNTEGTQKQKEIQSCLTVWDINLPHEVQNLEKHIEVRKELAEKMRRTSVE
Chain of c-Abl (His-tagged recombinant human ABL1) (P00519 whole entry): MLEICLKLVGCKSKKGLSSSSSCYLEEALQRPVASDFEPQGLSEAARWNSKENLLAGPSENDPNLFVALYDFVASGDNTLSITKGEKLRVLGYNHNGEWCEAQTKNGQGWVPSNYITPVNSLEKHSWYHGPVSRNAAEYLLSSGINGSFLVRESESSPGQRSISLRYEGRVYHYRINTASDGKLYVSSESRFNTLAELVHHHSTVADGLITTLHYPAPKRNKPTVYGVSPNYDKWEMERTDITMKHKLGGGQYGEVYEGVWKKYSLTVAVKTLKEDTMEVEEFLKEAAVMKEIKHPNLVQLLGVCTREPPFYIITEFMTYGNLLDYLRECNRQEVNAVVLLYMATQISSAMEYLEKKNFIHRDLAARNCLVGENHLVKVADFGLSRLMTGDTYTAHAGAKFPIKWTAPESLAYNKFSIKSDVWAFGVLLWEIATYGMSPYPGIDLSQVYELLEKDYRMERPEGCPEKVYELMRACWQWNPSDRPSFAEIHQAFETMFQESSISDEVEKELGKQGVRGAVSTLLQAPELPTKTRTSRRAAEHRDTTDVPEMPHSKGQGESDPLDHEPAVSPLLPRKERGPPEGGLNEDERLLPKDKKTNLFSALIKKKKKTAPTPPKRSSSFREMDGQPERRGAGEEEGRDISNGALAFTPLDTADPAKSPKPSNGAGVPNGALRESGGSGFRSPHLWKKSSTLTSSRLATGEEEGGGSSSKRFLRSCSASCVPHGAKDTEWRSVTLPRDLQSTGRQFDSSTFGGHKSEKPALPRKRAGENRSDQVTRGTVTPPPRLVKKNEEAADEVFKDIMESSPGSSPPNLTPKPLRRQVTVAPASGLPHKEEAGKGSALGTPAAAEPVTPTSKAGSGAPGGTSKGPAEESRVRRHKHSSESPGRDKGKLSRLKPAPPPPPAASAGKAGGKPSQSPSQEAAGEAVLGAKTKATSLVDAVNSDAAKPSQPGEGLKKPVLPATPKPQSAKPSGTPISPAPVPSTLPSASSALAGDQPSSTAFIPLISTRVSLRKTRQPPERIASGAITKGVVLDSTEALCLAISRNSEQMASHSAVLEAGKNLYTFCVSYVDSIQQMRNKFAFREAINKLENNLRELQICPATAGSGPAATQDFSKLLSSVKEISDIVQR
Chain of LRRK2 G2019S (Q5S007 whole entry G2019S): as the sequence (Q5S007 whole entry) above, with G2019S counted along it

Take `N#Cc1c(F)cccc1-c1ccc2nc(NC(=O)[C@@H]3C[C@@H]3F)cn2c1` [Example 60, (1S,2S)—N-(6-(2-cyano-3-fluorophenyl)imidazo[1,2-a]pyridin-2-yl)-2-fluorocyclopropanecarboxamide]: the pIC50 in assay [1], in assay [2] and in assay [3] was 7.00 to 8.00 in each case.
In the case of `Cc1c(F)cccc1-c1ccc2nc(NC(=O)C3CC(F)C3)cn2c1` (stereo not drawn) [Example 78, 3-fluoro-N-(6-(3-fluoro-2-methylphenyl)imidazo[1,2-a]pyridin-2-yl)cyclobutanecarboxamide], the pIC50 was 7.00 to 8.00 in assay [1], 6.00 to 7.00 in assay [2] and 7.00 to 8.00 in assay [3].
Regarding `O=C(Nc1cn2cc(-c3cnc4[nH]ccc4c3)ccc2n1)[C@@H]1C[C@@H]1F` [Example 27, (1S,2S)—N-(6-(1H-pyrrolo[2,3-b]pyridin-5-yl)imidazo[1,2-a]pyridin-2-yl)-2-fluorocyclopropane-1-carboxamide], the pIC50 in assay [1] was 7.00 to 8.00; in assay [2] it was 6.00 to 7.00; in assay [3], over 8.00.
`Cc1ccc(C#N)cc1-c1ccc2nc(NC(=O)[C@@H]3C[C@@H]3F)cn2c1` [Example 17, (1S,2S)—N-(6-(5-cyano-2-methylphenyl)imidazo[1,2-a]pyridin-2-yl)-2-fluorocyclopropane-1-carboxamide]: the pIC50 in assay [1] was 6.00 to 7.00; in assay [2], 6.00 to 7.00; in assay [3], over 8.00.
Turning to `CC(=O)Nc1ccc(C)c(-c2ccc3nc(NC(=O)[C@@H]4C[C@@H]4F)cn3c2)c1` [Example 25, (1S,2S)—N-(6-(5-acetamido-2-methylphenyl)imidazo[1,2-a]pyridin-2-yl)-2-fluorocyclopropane-1-carboxamide], the pIC50 in assay [1] is 6.00 to 7.00; in assay [2], under 6.00; in assay [3], 7.00 to 8.00.
As for `COCc1c(F)cccc1-c1ccc2nc(NC(=O)[C@@H]3C[C@@H]3F)cn2c1` [Example 64, (1S,2S)-2-fluoro-N-(6-(3-fluoro-2-(methoxymethyl)phenyl)imidazo[1,2-a]pyridin-2-yl)cyclopropanecarboxamide], the pIC50 is 6.00 to 7.00 in assay [1], under 6.00 in assay [2] and over 8.00 in assay [3].
For `CNc1ccc(C)c(-c2ccc3nc(NC(=O)[C@@H]4C[C@@H]4F)cn3c2)c1` [Example 24, (1S,2S)-2-fluoro-N-(6-(2-methyl-5-(methylamino)phenyl)imidazo[1,2-a]pyridin-2-yl)cyclopropane-1-carboxamide], the pIC50 in assay [1] was 7.00 to 8.00; in assay [2], 6.00 to 7.00; in assay [3], over 8.00.
In the case of `O=C(Nc1cn2cc(-c3cccc(F)c3F)ccc2n1)[C@@H]1C[C@@H]1F` [Example 62, (1S,2S)—N-(6-(2,3-difluorophenyl)imidazo[1,2-a]pyridin-2-yl)-2-fluorocyclopropanecarboxamide], the values for the pIC50 in assay [1], in assay [2] and in assay [3] were 7.00 to 8.00, 7.00 to 8.00 and over 8.00, respectively.
Regarding `O=C(Nc1cn2cc(-c3cc[nH]n3)ccc2n1)[C@@H]1C[C@@H]1F` [Example 18, (1S,2S)—N-(6-(1H-pyrazol-3-yl)imidazo[1,2-a]pyridin-2-yl)-2-fluorocyclopropane-1-carboxamide], the pIC50 in assay [1], in assay [2] and in assay [3] was 6.00 to 7.00 throughout.
As to `O=C(Nc1cn2cc(-c3cccc(F)c3-c3ccco3)ccc2n1)[C@@H]1C[C@@H]1F` [Example 65, (1S,2S)-2-fluoro-N-(6-(3-fluoro-2-(furan-2-yl)phenyl)imidazo[1,2-a]pyridin-2-yl)cyclopropanecarboxamide], the negative logarithm of the IC50 (pIC50) in assay [1] is under 6.00; in assay [2], under 6.00; in assay [3], 7.00 to 8.00.
As for `Cc1cc(F)ncc1-c1ccc2nc(NC(=O)[C@@H]3C[C@@H]3F)cn2c1` [Example 67, (1S,2S)-2-fluoro-N-(6-(6-fluoro-4-methylpyridin-3-yl)imidazo[1,2-a]pyridin-2-yl)cyclopropanecarboxamide], the pIC50 in assay [1], in assay [2] and in assay [3] was 7.00 to 8.00 in each case.
For the molecule `CNCc1c(F)cccc1-c1ccc2nc(NC(=O)[C@@H]3C[C@@H]3F)cn2c1` [Example 80, (1S,2S)-2-fluoro-N-(6-(3-fluoro-2-((methylamino)methyl)phenyl)imidazo[1,2-a]pyridin-2-yl)cyclopropanecarboxamide], the pIC50 in assay [1], in assay [2] and in assay [3] was under 6.00 throughout.
Take `Cc1c(F)cccc1-c1ccc2nc(NC(=O)C3CCC3)cn2c1` [Example 76, N-(6-(3-fluoro-2-methylphenyl)imidazo[1,2-a]pyridin-2-yl)cyclobutanecarboxamide]: the pIC50 in assay [1], in assay [2] and in assay [3] was 7.00 to 8.00 each time.
Regarding `Cc1c(F)cccc1-c1ccc2nc(NC(=O)C3CC3)cn2c1` [Example 70, N-(6-(3-fluoro-2-methylphenyl)imidazo[1,2-a]pyridin-2-yl)cyclopropanecarboxamide], the pIC50 in assay [1] is 7.00 to 8.00; in assay [2], 7.00 to 8.00; in assay [3], over 8.00.
On to `Cc1ccncc1-c1ccc2nc(NC(=O)[C@@H]3C[C@@H]3F)c(C)n2c1` [Example 5, (1S,2S)-2-fluoro-N-(3-methyl-6-(4-methylpyridin-3-yl)imidazo[1,2-a]pyridin-2-yl)cyclopropane-1-carboxamide], for which the pIC50 was under 6.00 in assay [1], under 6.00 in assay [2] and 6.00 to 7.00 in assay [3].
Regarding `CN(C)Cc1c(F)cccc1-c1ccc2nc(NC(=O)[C@@H]3C[C@@H]3F)cn2c1` [Example 84, (1S,2S)—N-(6-(2-((dimethylamino)methyl)-3-fluorophenyl)imidazo[1,2-a]pyridin-2-yl)-2-fluorocyclopropanecarboxamide], the pIC50 in assay [1], in assay [2] and in assay [3] was under 6.00 each time.
In the case of `Cc1c(F)cc(N)cc1-c1ccc2nc(NC(=O)[C@@H]3C[C@@H]3F)cn2c1` [Example 50, (1S,2S)—N-(6-(5-amino-3-fluoro-2-methylphenyl)imidazo[1,2-a]pyridin-2-yl)-2-fluorocyclopropane-1-carboxamide], the figures for the pIC50 in assay [1], in assay [2] and in assay [3] were 7.00 to 8.00, 7.00 to 8.00 and over 8.00, respectively.
On to `O=C(Nc1cn2cc(-c3cccc(F)c3CO)ccc2n1)[C@@H]1C[C@@H]1F` [Example 57, (1S,2S)-2-fluoro-N-(6-(3-fluoro-2-(hydroxymethyl)phenyl)imidazo[1,2-a]pyridin-2-yl)cyclopropane-1-carboxamide], for which the values for the pIC50 in assay [1], in assay [2] and in assay [3] were under 6.00, under 6.00 and over 8.00, respectively.
Turning to `Cc1c(F)ccc(-c2ccc3nc(NC(=O)[C@@H]4C[C@@H]4F)cn3c2)c1C` [Example 37, (1S,2S)-2-fluoro-N-(6-(4-fluoro-2,3-dimethylphenyl)imidazo[1,2-a]pyridin-2-yl)cyclopropane-1-carboxamide], the figures for the pIC50 in assay [1], in assay [2] and in assay [3] were 6.00 to 7.00, 6.00 to 7.00 and over 8.00, respectively.
Turning to `CSc1c(F)cccc1-c1ccc2nc(NC(=O)[C@@H]3C[C@@H]3F)cn2c1` [Example 66, (1S,2S)-2-fluoro-N-(6-(3-fluoro-2-(methylthio)phenyl)imidazo[1,2-a]pyridin-2-yl)cyclopropanecarboxamide], the pIC50 in assay [1] is 7.00 to 8.00; in assay [2], 6.00 to 7.00; in assay [3], over 8.00.
